Experimental data taken from publication PMC6381277, “Cardiolipin Alters Rhodobacter sphaeroides Cell Shape by Affecting Peptidoglycan Precursor Biosynthesis” (mBio, 2019).

Target: T1, MurG (Cereibacter sphaeroides, UniProt Q3J4M2)
T1 construct: full-length murG in pET28b(+), N-terminal His tag cut with thrombin, E. coli BL21(DE3); Triton X-100 extraction; start encoded by primer MGRPLLL
T1 sequence (Q3J4M2 1-364): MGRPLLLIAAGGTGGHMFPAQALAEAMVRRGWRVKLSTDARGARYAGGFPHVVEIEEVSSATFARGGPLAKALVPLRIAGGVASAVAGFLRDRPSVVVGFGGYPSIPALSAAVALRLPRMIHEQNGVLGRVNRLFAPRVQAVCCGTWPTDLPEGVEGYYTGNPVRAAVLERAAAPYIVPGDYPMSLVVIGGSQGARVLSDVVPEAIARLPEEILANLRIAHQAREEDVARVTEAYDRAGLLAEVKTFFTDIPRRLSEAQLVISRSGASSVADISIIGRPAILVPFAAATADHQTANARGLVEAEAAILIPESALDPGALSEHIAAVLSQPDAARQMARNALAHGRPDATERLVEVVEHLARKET
Test: liposome-pelleting assay, SDS-PAGE densitometry
Assay type: binding
Conditions: 6 uM MurG, 4 mM phospholipid, 0.5 uM BSA, 20 mM Tris pH 8.0, room temperature

Row | SMILES | % pelleted MurG (10 mol% PGL in PC liposomes (mixed membrane)) | % pelleted MurG (10 mol% CL in PC liposomes (mixed membrane))
1 | CCCCCCCC/C=C\CCCCCCCC(=O)OC[C@H](COP(=O)(O)OCC(O)CO)OC(=O)CCCCCCC/C=C\CCCCCCCC (mixture of isomers) [PGL, 1,2-di-(9Z-octadecenoyl)-sn-glycero-D-phospho-(1′-rac-glycerol)] | 92% | 
2 | CCCCCCCC/C=C\CCCCCCCC(=O)OC[C@H](COP(=O)(O)OCC(O)COP(=O)(O)OC[C@@H](COC(=O)CCCCCCC/C=C\CCCCCCCC)OC(=O)CCCCCCC/C=C\CCCCCCCC)OC(=O)CCCCCCC/C=C\CCCCCCCC (some centres unmarked) [CL, 1,1′,2,2′-tetra-(9Z-octadecenoyl) cardiolipin] |  | 92%
